The values that follow come from patent publication US20230144824A1, “1H-PYRAZOLO[4,3-d]PYRIMIDINE COMPOUNDS AS TOLL-LIKE RECEPTOR 7 (TLR7) AGONISTS” (BRISTOL-MYERS SQUIBB COMPANY, priority 2020, published 2023).

pEC50: −log10 of the molar value.

For test [1], the target named is T1, human TLR7 (Homo sapiens, UniProt Q9NYK1).
T1 construct: host or cells: HEK-Blue TLR7 cells (engineered human embryonic kidney cells)
T1 sequence (Q9NYK1 27-1049): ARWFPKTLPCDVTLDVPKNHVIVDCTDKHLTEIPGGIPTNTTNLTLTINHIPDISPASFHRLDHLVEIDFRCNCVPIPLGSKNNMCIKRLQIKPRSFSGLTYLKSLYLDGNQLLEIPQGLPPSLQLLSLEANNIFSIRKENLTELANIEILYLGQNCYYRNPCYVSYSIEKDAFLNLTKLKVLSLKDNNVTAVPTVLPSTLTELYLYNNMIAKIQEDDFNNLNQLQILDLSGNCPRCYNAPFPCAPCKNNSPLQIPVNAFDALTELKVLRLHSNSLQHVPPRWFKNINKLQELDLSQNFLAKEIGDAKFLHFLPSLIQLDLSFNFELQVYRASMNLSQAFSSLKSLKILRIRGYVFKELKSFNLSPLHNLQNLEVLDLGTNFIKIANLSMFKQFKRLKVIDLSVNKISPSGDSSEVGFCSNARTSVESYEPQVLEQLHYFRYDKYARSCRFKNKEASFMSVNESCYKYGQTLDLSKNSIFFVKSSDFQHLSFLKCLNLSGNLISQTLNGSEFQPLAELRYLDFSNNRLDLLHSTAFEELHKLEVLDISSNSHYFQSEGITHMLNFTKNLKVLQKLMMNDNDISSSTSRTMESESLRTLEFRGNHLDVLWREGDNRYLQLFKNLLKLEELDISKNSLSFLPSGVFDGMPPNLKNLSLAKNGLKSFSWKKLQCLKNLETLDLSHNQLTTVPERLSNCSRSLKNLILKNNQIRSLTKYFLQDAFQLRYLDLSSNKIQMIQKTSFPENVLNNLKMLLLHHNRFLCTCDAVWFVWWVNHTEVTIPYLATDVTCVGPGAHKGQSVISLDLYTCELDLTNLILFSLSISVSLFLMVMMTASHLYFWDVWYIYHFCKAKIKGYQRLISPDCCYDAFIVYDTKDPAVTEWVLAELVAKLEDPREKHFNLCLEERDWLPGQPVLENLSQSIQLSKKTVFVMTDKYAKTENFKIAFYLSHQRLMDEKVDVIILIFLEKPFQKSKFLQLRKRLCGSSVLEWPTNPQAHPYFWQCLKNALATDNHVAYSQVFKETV
The experiment in a line: Human TLR7 agonist activity assay (HEK-Blue TLR7 SEAP reporter). The conditions noted are these: HEK-Blue TLR7 cells, 18 h treatment, average where assay performed multiple times, read-out: hTLR7 Agonism EC50. It is filed as cell-based. In outline: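 HEK-Blue TLR7 cells (15,000/well) treated with compound for 18 h at 37 °C, 5% CO2. Secreted SEAP measured with Quanti-Blue, 30 min, OD 620 nm. EC50 taken as concentration giving half-maximal response between baseline and maximum.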

Test [2] relates to CD69. In words: Induction of CD69 in human whole blood. It is filed as cell-based. The conditions noted are these: Homo sapiens, 17 h, 100% set to 1 uM of resiquimod, average where assay performed multiple times, read-out: hWB CD69 EC50. The method in brief:
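Heparinized human whole blood treated with TLR7 agonist at final 1 uM and incubated 17 h at 37° C. CD69 surface staining alongside CD14 and CD19, then fix/lysis and flow cytometry on iQuePlus. Curves fitted with 1 uM resiquimod set as 100%.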

In the case of `CCC[C@@H](CCO)Nc1nc(N)nc2cnn(Cc3ncc(C4CCN(CC(C)(C)O)CC4)cc3OC)c12` [Compound 151, (3S)-3-{[5-amino-1-({5-[1-(2-hydroxy-2-methylpropyl)piperidin-4-yl]-3-methoxypyridin-2-yl}methyl)-1H-pyrazolo[4,3-d]pyrimidin-7-yl]amino}hexan-1-ol], the pEC50 – broadly, the negative decadic logarithm of the EC50, by convention in mol/L – is 7.82 in test [1] and 9.49 in test [2].
In the case of `CCCCNc1nc(N)nc2c(C)nn(Cc3ncc(C4CCN(C(C)C)CC4)cc3OC)c12` [Compound 122, N7-butyl-1-({3-methoxy-5-[1-(propan-2-yl)piperidin-4-yl]pyridin-2-yl}methyl)-3-methyl-1H-pyrazolo[4,3-d]pyrimidine-5,7-diamine], the negative-log EC50 (pEC50) is 6.71 in test [1] and 7.73 in test [2].
The like results for `CCC[C@@H](CCO)Nc1nc(N)nc2cnn(Cc3ncc(C4CCN(C5CC6(CCC6)C5)CC4)cc3OC)c12` [Compound 147, (3S)-3-[(5-amino-1-{[3-methoxy-5-(1-{spiro[3.3]heptan-2-yl}piperidin-4-yl)pyridin-2-yl]methyl}-1H-pyrazolo[4,3-d]pyrimidin-7-yl)amino]hexan-1-ol] were, in that order, 7.80 and 8.68.
For `CCC[C@@H](CCO)Nc1nc(N)nc2cnn(Cc3nc(C4CCN(CCO)CC4)ccc3OC)c12` [Compound 188, (3S)-3-{[5-amino-1-({6-[1-(2-hydroxyethyl)piperidin-4-yl]-3-methoxypyridin-2-yl}methyl)-1H-pyrazolo[4,3-d]pyrimidin-7-yl]amino}hexan-1-ol] the same measures were 6.54 and 7.08.
In the case of `CCC[C@@H](CCO)Nc1nc(N)nc2cnn(Cc3nc(C4CCN(C(=O)CN(C)C)CC4)ccc3OC)c12` [Compound 187, 1-(4-{6-[(5-amino-7-{[(3S)-1-hydroxyhexan-3-yl]amino}-1H-pyrazolo[4,3-d]pyrimidin-1-yl)methyl]-5-methoxypyridin-2-yl}piperidin-1-yl)-2-(dimethylamino)ethan-1-one], the pEC50 in test [1] was 6.40; in test [2], 7.09.
The like results for `CCC[C@@H](CCO)Nc1nc(N)nc2cnn(Cc3cnc(C4CCNCC4)cc3OC)c12` [Compound 166, (3S)-3-[(5-amino-1-{[4-methoxy-6-(piperidin-4-yl)pyridin-3-yl]methyl}-1H-pyrazolo[4,3-d]pyrimidin-7-yl)amino]hexan-1-ol] were, in that order, 7.34 and 7.65.
On to `CCC[C@@H](CCO)Nc1nc(N)nc2cnn(Cc3nc(C4CCNCC4)ccc3OC)c12` [Compound 186, (3S)-3-[(5-amino-1-{[3-methoxy-6-(piperidin-4-yl)pyridin-2-yl]methyl}-1H-pyrazolo[4,3-d]pyrimidin-7-yl)amino]hexan-1-ol], for which the pEC50 in test [1] was 5.78; in test [2] it was 6.62.
As to `CCCCNc1nc(N)nc2cnn(Cc3ncc(C4CCN(C(=O)CCN(C)C)CC4)cc3OC)c12` [Compound 109, 1-[4-(6-{[5-amino-7-(butylamino)-1H-pyrazolo[4,3-d]pyrimidin-1-yl]methyl}-5-methoxypyridin-3-yl)piperidin-1-yl]-3-(dimethylamino)propan-1-one], the pEC50 in test [1] was 6.67; in test [2] it was 7.84.
Turning to `CCC[C@@H](CCO)Nc1nc(N)nc2cnn(Cc3ncc(N4CCN(CC(C)(C)O)CC4)cc3OC)c12` [Compound 172, (3S)-3-{[5-amino-1-({5-[4-(2-hydroxy-2-methylpropyl)piperazin-1-yl]-3-methoxypyridin-2-yl}methyl)-1H-pyrazolo[4,3-d]pyrimidin-7-yl]amino}hexan-1-ol], the pEC50 in test [1] was 7.70; in test [2], 7.97.
Take `CCCCNc1nc(N)nc2cnn(Cc3cc(F)c(N4CCN(S(C)(=O)=O)CC4)cc3OC)c12` [Compound 193, N7-butyl-1-{[5-fluoro-4-(4-methanesulfonylpiperazin-1-yl)-2-methoxyphenyl]methyl}-1H-pyrazolo[4,3-d]pyrimidine-5,7-diamine]: the pEC50 is 7.07 in test [1] and 6.28 in test [2].
For the molecule `COc1cc(C2CCNCC2)cnc1Cn1ncc2nc(N)nc(NCc3cc(C)on3)c21` [Compound 137, 1-{[3-methoxy-5-(piperidin-4-yl)pyridin-2-yl]methyl}-N7-[(5-methyl-1,2-oxazol-3-yl)methyl]-1H-pyrazolo[4,3-d]pyrimidine-5,7-diamine], the negative logarithm of the EC50 (pEC50) in test [1] was 6.45; in test [2], 6.93.
For `CCC[C@@H](CCO)Nc1nc(N)nc2cnn(Cc3ncc(C4CCNCC4)cc3OC)c12` [Compound 124, (3S)-3-[(5-amino-1-{[3-methoxy-5-(piperidin-4-yl)pyridin-2-yl]methyl}-1H-pyrazolo[4,3-d]pyrimidin-7-yl)amino]hexan-1-ol] the same measures were 6.72 and 7.24.
